Test results reported in patent publication US11655235B2, “Pyrrolidine and piperidine compounds” (YUHAN CORPORATION, priority 2019, dated 2023).

Legend:
Assay type in all cases: biochemical
DPP4 = DPP4 (Homo sapiens, UniProt P27487); assay: DPP4 inhibition, fluorogenic substrate H-Gly-Pro-AMC; set-up: purchased R&D Systems; details: recombinant human DPP4
Recombinant human FAP [1] = target: T1, Recombinant human FAP (Homo sapiens, UniProt Q12884); assay: FAP FRET assay, FGF21-sequence FRET peptide substrate; details: FRET peptide with human FGF21 sequence, 6 μM, 37° C.
T1 construct: purchased R&D systems
T1 sequence (Q12884 1-760): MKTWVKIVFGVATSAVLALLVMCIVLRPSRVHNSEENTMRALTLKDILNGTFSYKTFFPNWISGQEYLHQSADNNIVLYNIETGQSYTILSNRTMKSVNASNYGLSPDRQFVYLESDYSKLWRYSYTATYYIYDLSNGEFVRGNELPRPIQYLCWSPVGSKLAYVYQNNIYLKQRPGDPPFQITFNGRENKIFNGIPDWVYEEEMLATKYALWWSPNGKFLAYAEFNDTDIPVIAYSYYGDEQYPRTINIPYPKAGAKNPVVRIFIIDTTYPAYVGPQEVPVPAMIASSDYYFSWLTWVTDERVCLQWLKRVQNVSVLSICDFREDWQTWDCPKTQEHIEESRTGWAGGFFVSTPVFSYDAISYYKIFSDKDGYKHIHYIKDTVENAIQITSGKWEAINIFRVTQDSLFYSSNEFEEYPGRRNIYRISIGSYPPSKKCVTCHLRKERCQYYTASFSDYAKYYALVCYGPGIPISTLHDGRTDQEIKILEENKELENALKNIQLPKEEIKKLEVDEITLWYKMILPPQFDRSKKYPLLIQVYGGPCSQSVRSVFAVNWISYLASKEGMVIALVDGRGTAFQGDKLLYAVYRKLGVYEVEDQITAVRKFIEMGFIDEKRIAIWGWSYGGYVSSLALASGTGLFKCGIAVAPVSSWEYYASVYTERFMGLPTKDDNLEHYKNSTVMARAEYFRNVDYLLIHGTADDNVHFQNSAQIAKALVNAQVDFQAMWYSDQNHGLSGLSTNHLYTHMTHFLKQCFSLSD
Procedure, shortened: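 Recombinant human FAP, 10 ng per reaction, in 50 mM HEPES pH 7.2 with 150 mM NaCl, 0.1 mg/ml BSA, 1 mM EDTA; HyLite Fluor 488/QXL 520 FRET peptide of human FGF21 sequence at 6 μM final, ≤0.1% DMSO, 37° C. IC50 from 8-point curves by four-parameter logistic fit.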

recombinant human PREP = target: T2, recombinant human PREP (Homo sapiens, UniProt P48147); assay: PREP inhibition, fluorogenic substrate Z-Gly-Pro-AMC; details: Inhibitory Activity (IC50, nM) PREP, recombinant human PREP
T2 construct: purchased R&D System
T2 sequence (P48147 1-710): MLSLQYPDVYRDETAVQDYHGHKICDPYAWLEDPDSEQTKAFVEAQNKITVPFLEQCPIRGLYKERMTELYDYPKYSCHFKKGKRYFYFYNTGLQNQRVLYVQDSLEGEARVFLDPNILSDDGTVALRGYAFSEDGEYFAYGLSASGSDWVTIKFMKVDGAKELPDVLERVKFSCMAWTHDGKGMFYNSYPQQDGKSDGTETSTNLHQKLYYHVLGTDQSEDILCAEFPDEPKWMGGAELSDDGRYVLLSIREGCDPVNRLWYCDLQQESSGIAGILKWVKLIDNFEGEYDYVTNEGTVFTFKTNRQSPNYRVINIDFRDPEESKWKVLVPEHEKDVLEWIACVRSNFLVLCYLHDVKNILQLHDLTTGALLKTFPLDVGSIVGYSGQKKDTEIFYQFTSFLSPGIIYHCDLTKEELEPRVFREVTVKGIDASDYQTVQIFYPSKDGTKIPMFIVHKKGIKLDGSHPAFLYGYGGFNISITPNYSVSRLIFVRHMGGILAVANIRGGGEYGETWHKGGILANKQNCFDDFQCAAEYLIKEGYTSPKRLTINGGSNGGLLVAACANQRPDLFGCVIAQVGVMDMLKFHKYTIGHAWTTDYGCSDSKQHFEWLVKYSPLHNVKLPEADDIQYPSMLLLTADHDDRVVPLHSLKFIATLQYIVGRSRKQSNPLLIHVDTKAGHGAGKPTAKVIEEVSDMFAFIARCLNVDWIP
Experimental: (§1) The compounds according to the present technology were evaluated in terms of the inhibitory effect on the activity of dipeptidyl peptidases including FAP by using a substrate producing fluorescent substances upon enzymatic decomposition. The test was conducted at 25° C. to get a final reaction volume of 100 μL in a 96 black well plate. […] Briefly, the test compounds were dissolved in dimethyl sulfoxide (DMSO) at a concentration of 20 mM and then subjected to serial dilution, thereby creating an 8 point curve. As for the control group, a 6 point curve created by serial dilution of Talabostat in the same buffer solution was used. Fluorescence intensity was measured using a microplate reader (Flexstation3, Molecular Devices) under the wavelength condition exciting at 380 nm and reading the emission at 460 nm. The inhibitory effect of the test compounds was measured as a decrease (%) in the signal rate as compared to the control group without any inhibitor. Data was fixed to a logistic model with four variables and IC50 value was calculated using GraphPad Prism program. As for recombinant human DPP4 (R&D Systems), 25 mM tris (pH 8.0) buffer as a buffer solution and H-Gly-Pro-AMC (Bachem) as a substrate were used. As for recombinant human DPP7 (R&D Systems), 25 mM MES (pH 6.0) buffer as a buffer solution and Lys-Pro-AMC (Bachem) as a substrate were used. As for recombinant human DPP8 (PBS Bioscience), as a buffer solution, a 10 mM tris (pH 7.4) buffer comprising 10 mM of magnesium chloride and 0.05% of Tween 20, and Z-Ala-Pro-AMC (BPS Bioscience) as a substrate were used. As for recombinant human DPP9 (R&D Systems), a 25 mM tris (pH 8.0) buffer as a buffer solution and H-Gly-Pro-AMC (Bachem) as a substrate were used. As for recombinant human PREP (R&D System), as a buffer solution, a 25 mM tris (pH 7.5) buffer comprising 250 mM sodium chloride and 2.5 mM DTT (Dithiolthreitol), and Z-Gly-Pro-AMC (Bachem) as a substrate were used. The evaluation was made by using 10 ng of DPP4, PDD7, and PREP, 20 ng of DPP8, and 50 ng of DPP9 based on the final reaction. In the evaluation of DPP4, the test compounds were subjected to serial dilution in a buffer under the condition containing up to 0.1% of DMSO. In the evaluation of DPP7, DPP8, DPP9, and PREP, the test compounds were subjected to serial dilution in each buffer under the condition containing up to 0.5% of DMSO.

recombinant human DPP9 = target: T3, recombinant human DPP9 (Homo sapiens, UniProt Q86TI2); assay: DPP9 inhibition, fluorogenic substrate H-Gly-Pro-AMC; details: recombinant human DPP9
T3 construct: purchased R&D Systems
T3 sequence (Q86TI2 whole entry): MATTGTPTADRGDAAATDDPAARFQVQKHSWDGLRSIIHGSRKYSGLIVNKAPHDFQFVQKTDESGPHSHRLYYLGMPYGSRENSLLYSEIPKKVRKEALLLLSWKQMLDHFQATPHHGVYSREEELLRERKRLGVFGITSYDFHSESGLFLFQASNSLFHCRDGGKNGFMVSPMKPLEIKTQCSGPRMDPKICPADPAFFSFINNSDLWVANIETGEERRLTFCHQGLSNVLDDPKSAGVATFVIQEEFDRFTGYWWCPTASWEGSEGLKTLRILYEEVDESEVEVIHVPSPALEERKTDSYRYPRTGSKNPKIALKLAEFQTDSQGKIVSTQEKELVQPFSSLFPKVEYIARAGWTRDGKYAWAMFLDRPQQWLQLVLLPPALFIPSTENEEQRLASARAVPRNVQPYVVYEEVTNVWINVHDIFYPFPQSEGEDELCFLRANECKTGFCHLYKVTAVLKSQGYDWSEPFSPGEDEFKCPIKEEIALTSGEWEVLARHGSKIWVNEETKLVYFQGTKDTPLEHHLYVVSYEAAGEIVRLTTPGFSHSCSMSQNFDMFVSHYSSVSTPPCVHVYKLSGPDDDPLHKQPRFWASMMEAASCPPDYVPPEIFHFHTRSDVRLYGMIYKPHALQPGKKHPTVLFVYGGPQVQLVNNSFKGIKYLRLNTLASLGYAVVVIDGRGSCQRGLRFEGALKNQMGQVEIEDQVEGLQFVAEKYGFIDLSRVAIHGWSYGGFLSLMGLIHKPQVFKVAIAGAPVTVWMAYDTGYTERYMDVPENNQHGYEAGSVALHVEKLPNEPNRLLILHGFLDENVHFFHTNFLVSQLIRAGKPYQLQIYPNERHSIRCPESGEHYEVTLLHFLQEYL
Experimental: as §1

recombinant human DPP7 = target: T4, recombinant human DPP7 (Homo sapiens, UniProt Q9UHL4); assay: DPP7 inhibition, fluorogenic substrate Lys-Pro-AMC; details: recombinant human DPP7
T4 construct: purchased R&D Systems
Experimental: as §1

Recombinant human FAP [2] = target: T1, Recombinant human FAP; assay: FAP inhibition, fluorogenic substrate Z-Gly-Pro-AMC; details: recombinant human FAP, substrate Z-Gly-Pro-AMC
Procedure, shortened: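 Recombinant human FAP, 10 ng per reaction, in 50 mM Tris pH 7.5 with 1 M NaCl and 1 mg/ml BSA at 25° C; substrate Z-Gly-Pro-AMC, ≤0.1% DMSO. AMC fluorescence read at ex 380/em 460 nm; % signal-rate decrease vs no-inhibitor control, 8-point curves fitted to a four-parameter logistic for IC50.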

Chain of DPP4 (P27487 whole entry): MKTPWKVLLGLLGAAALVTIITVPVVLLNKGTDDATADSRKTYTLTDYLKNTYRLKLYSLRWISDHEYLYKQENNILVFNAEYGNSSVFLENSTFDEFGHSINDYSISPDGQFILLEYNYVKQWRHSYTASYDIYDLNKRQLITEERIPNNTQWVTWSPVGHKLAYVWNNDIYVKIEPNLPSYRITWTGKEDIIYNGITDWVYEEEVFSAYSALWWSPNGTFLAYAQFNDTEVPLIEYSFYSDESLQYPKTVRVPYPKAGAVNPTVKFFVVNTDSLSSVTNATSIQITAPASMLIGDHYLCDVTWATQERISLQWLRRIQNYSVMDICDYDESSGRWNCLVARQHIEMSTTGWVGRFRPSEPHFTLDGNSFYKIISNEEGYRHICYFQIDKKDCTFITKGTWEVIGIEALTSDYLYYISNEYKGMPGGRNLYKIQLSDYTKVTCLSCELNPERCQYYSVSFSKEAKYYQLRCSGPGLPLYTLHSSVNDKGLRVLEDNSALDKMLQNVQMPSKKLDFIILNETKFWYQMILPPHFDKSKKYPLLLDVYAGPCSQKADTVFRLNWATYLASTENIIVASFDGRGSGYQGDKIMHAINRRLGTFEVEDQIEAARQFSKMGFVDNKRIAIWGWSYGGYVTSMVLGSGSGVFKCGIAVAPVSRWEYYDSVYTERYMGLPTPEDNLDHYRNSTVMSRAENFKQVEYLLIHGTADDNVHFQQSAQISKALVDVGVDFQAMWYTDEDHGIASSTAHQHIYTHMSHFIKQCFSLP

| SMILES | IC50 (DPP4) [nM] | IC50 (Recombinant human FAP [1]) [nM] | IC50 (recombinant human PREP) [nM] | IC50 (recombinant human DPP9) [nM] | IC50 (recombinant human DPP7) [nM] | IC50 (Recombinant human FAP [2]) [nM] |
| --- | --- | --- | --- | --- | --- | --- |
| N#C[C@@H]1CCCN1C(=O)CN1CC[C@@H](Nc2ccc(C(F)(F)F)c3ncccc23)C1 [Example 201, (2S)-1-[2-[(3R)-3-[[8-(trifluoromethyl)-5-quinolyl]amino]pyrrolidin-1-yl]acetyl]pyrrolidine-2-carbonitrile] | 26300 | 1.3 | 9150 |  | 3910 |  |
| N#C[C@@H]1CCCN1C(=O)CN1CC[C@H](Nc2cccc3ncc(F)cc23)C1 [Example 234, (2S)-1-[2-[(3S)-3-[(3-fluoro-5-quinolyl)amino]pyrrolidin-1-yl]acetyl]pyrrolidine-2-carbonitrile] | 63600 | 1.6 |  |  | 6080 | 1.3 |
| N#Cc1ccc(N[C@H]2CCN(CC(=O)N3C[C@@H](F)C[C@H]3C#N)C2)c2cccnc12 [Example 267, 5-[[(3S)-1-[2-oxo-2-[(2S,4S)-2-cyano-4-fluoro-pyrrolidin-1-yl]ethyl]pyrrolidin-3-yl]amino]quinoline-8-carbonitrile] | 2570 | 1.5 | 835 |  | 3160 |  |
| N#C[C@@H]1C[C@H](F)CN1C(=O)CN1CCC(Nc2ccc(F)c3ncccc23)CC1 [Example 330, (2S,4S)-4-fluoro-1-[2-[4-[(8-fluoro-5-quinolyl)amino]-1-piperidyl]acetyl]pyrrolidine-2-carbonitrile] | 3290 | 6.3 |  |  |  | 2.8 |
| Cc1ccc(NC2CCN(CC(=O)N3C[C@@H](F)C[C@H]3C#N)CC2)c2cccnc12 [Example 331, (2S,4S)-4-fluoro-1-[2-[4-[(8-methyl-5-quinolyl)amino]-1-piperidyl]acetyl]pyrrolidine-2-carbonitrile] | 5110 | 6.5 |  |  |  | 3.8 |
| N#Cc1ccc2c(OC3CCN(CC(=O)N4C[C@@H](F)C[C@H]4C#N)CC3)cccc2n1 [Example 417, 5-[[1-[2-oxo-2-[(2S,4S)-2-cyano-4-fluoro-pyrrolidin-1-yl]ethyl]-4-piperidyl]oxy]quinoline-2-carbonitrile] | 5470 | 6.5 |  |  |  | 3.3 |

Now from value to molecule:

| IC50 (DPP4) [nM] | IC50 (Recombinant human FAP [1]) [nM] | IC50 (recombinant human PREP) [nM] | IC50 (recombinant human DPP9) [nM] | IC50 (recombinant human DPP7) [nM] | IC50 (Recombinant human FAP [2]) [nM] | SMILES |
| --- | --- | --- | --- | --- | --- | --- |
| 1780 | 4.9 | 1080 | 2820 | 77.8 |  | CN(c1ccc(OC(F)(F)F)c2ncccc12)[C@H]1CCN(CC(=O)N2C[C@@H](F)C[C@H]2C#N)C1 [Example 160, (2S,4S)-4-fluoro-1-[2-[(3S)-3-[methyl-[8-(trifluoromethoxy)-5-quinolyl]amino]pyrrolidin-1-yl]acetyl]pyrrolidine-2-carbonitrile] |
| 16900 | 4 |  |  | 3240 | 2.6 | COc1ccc(N[C@H]2CCN(CC(=O)N3CCC[C@H]3C#N)C2)c2cccnc12 [Example 243, (2S)-1-[2-[(3S)-3-[(8-methoxy-5-quinolyl)amino]pyrrolidin-1-yl]acetyl]pyrrolidine-2-carbonitrile] |
| 439 | 0.6 |  |  | 16.6 |  | N#C[C@@H]1C[C@H](F)CN1C(=O)CN1CC[C@H](Nc2ccc(C(=O)Nc3ccccn3)c3ncccc23)C1 [Example 294, N-(2-pyridyl)-5-[[(3S)-1-[2-oxo-2-[(2S,4S)-2-cyano-4-fluoro-pyrrolidin-1-yl]ethyl]pyrrolidin-3-yl]amino]quinoline-8-carboxamide] |
| ≥ 100000 | 6 |  |  | 4610 |  | N#C[C@@H]1C[C@H](F)CN1C(=O)CN1CCC(Nc2ccnc3c(Cl)cccc23)CC1 [Example 344, (2S,4S)-1-[2-[4-[(8-chloro-4-quinolyl)amino]-1-piperidyl]acetyl]-4-fluoro-pyrrolidine-2-carbonitrile] |
| 6610 | 12.4 | 1400 |  | 178 |  | N#C[C@@H]1C[C@H](F)CN1C(=O)CN1CCC(Nc2cc(C(F)(F)F)c3ncccc3c2)CC1 [Example 377, (2S,4S)-4-fluoro-1-[2-[4-[[8-(trifluoromethyl)-6-quinolyl]amino]-1-piperidyl]acetyl]pyrrolidine-2-carbonitrile] |
| 37200 | 6.9 |  |  | 3970 |  | N#C[C@@H]1CCCN1C(=O)CN1CCC(Oc2cccc3ncc(F)cc23)CC1 [Example 429, (2S)-1-[2-[4-[(3-fluoro-5-quinolyl)oxy]-1-piperidyl]acetyl]pyrrolidine-2-carbonitrile] |
| 19300 | 12.2 |  |  | 6340 |  | N#C[C@@H]1CCCN1C(=O)CN1CCC(Oc2ccc(Cl)c3ncccc23)CC1 [Example 431, (2S)-1-[2-[4-[(8-chloro-5-quinolyl)oxy]-1-piperidyl]acetyl]pyrrolidine-2-carbonitrile] |
| 4830 | 3.2 |  |  | 6560 |  | N#C[C@@H]1C[C@H](F)CN1C(=O)CN1CCC(Oc2ccnc3c(F)cccc23)CC1 [Example 435, (2S,4S)-4-fluoro-1-[2-[4-[(8-fluoro-4-quinolyl)oxy]-1-piperidyl]acetyl]pyrrolidine-2-carbonitrile] |
